No end group written: not given here.
Legend:
PAR-2 = test: FZI/0-PAR-2 AP competitive binding in Caco2 cells; set-up: species or system human
Procedure: FIGS. 4A-4D. FZI/0-PAR-2 AP competitive binding experiments.
FZI/0-PAR-2 AP competitive binding experiments. The activation of PAR-2 requires binding of either its tryptase-generated, cleaved N-terminal portion or the synthetic peptide equivalent, PAR-2 AP, to the receptor's extracellular loop 2 (ECL2) (47). To establish whether FZI/0 binds to the same receptor domain, competitive binding experiments were conducted in Caco2 cells. Cell monolayers were incubated with FITC-FZI/0 (2×10^−8M)) either in the presence of an excess of PAR-2 AP (10^−6M) or a scrambled peptide and then analyzed by fluorescence microscopy.

Caco2 cell monolayers = test: PAR-2 AP-induced actin rearrangement in Caco2 cell monolayers; format: cell-based, human; details: 10^−6M PAR-2 AP, Caco2, vs BSA
Source text: FIGS. 5A to 5D. Actin cytoskeleton arrangement in Caco2 cells exposed to PAR2-AP (FIG. 5A), BSA (FIG. 5B), PAR2-AP+FZI/0 (FIG. 5C), or PAR-2 AP+FZI/1 (FIG. 5D).
Effect of the Zot/zonulin inhibitor FZI/0 on PAR-2 AP-induced actin rearrangement. It has been recently reported that activation of PAR-2 receptor by PAR-2 AP promotes cytoskeletal reorganization (53). To establish whether this effect can be prevented by the synthetic Zot/zonulin peptide inhibitor, FZI/0, immunofluorescence studies were conducted in Caco2 cell monolayers. […] These cytoskeletal changes were blocked by the pre-incubation with 2×10^−6M FZI/0 (FIG. 5C), but not by the scrambled peptide FZI/1 (FIG. 5D). Therefore, PAR-2 AP and FZI/0 appear to bind to the identical structure on enterocytes.

[1] = tested on: wild-type mouse intestinal tissues; test: Intestinal TEER in wild-type mice tissues

Row | Substance | binding to Caco2 cells (fluorescent particles) (PAR-2; FITC-labelled FZI/0 vs media control) | displacement of FITC-FZI/0 binding (PAR-2; FITC-FZI/0 2×10^−8M, excess of competitor (PAR-2 AP 10^−6M; 100×)) | actin cytoskeleton arrangement (Caco2 cell monolayers) | intestinal resistance (TEER) over time [1]
1 | GGVLVQPG [FZI/0] | significant number of fluorescent particles | – | – | –
2 | SLIGRL [PAR-2 AP] | – | significant reduction of FZI/0 immunofluorescent staining particles | dissolution of stress fibers | comparable drop in intestinal resistance
